For eight compounds, zone of inhibition and inhibition zone (IZ) results are on record in ChEMBL document CHEMBL1137691, “Diazinium salts with dihydroxyacetophenone skeleton: Syntheses and antimicrobial activity” (2009).

What all share (assay type): functional
The subject of test [1] is Staphylococcus saprophyticus. Kind of test: Antibacterial activity against Staphylococcus saprophyticus at 30 ug/disk after 24 hrs by diffusion technique. The settings on record: read-out: DIZ.
In test [2] the test system is Escherichia coli. Put plainly: Antibacterial activity against Escherichia coli ATCC 25922 at 30 ug/disk after 24 hrs by diffusion technique. The note with it: ATCC 25922, 24 h, read-out: DIZ.
Test [3] relates to Candida albicans. Kind of test: Antifungal activity against Candida albicans at 100 ug/disk after 24 hrs by diffusion technique. The note with it: for zone of inhibition at 100 µg/disc: read-out: DIZ.
Test [4] relates to Bacillus subtilis. Kind of test: Antibacterial activity against Bacillus subtilis at 30 ug/disk after 24 hrs by diffusion technique. The note with it: read-out: DIZ.
Test [5] concerns Bacillus cereus. Put plainly: Antibacterial activity against Bacillus cereus at 30 ug/disk after 24 hrs by diffusion technique. The settings on record: read-out: DIZ.
For test [6], the system named is Pseudomonas aeruginosa. Kind of test: Antibacterial activity against Pseudomonas aeruginosa at 30 ug/disk after 24 hrs by diffusion technique. The settings on record: read-out: DIZ.
Test [7] deals with Micrococcus luteus. Put plainly: Antibacterial activity against Sarcina lutea ATCC 9341 at 30 ug/disk after 24 hrs by diffusion technique. The note with it: ATCC 9341, 24 h, read-out: DIZ.
Test [8] has as its system Staphylococcus aureus. Put plainly: Antibacterial activity against Staphylococcus aureus ATCC 25923 at 30 ug/disk after 24 hrs by diffusion technique. The settings on record: ATCC 25923, 24 h, read-out: DIZ.

Take `Cc1ccc(-c2ccc[n+](CC(=O)c3ccc(O)c(O)c3)n2)cc1`: the zone of inhibition at 30 µg/disc amounted to 40 mm in test [1]; 40 mm in test [2]; 35 mm in test [4]; 33 mm in test [5]; 16 mm in test [6]; 41 mm in test [7]. Besides, the zone of inhibition at 30 µg/disc in test [8] amounted to 23 mm. In addition, in test [3], the zone of inhibition at 100 µg/disc is 25 mm.
As for `O=C(N[C@H](CO)[C@H](O)c1ccc([N+](=O)[O-])cc1)C(Cl)Cl` [CHLORAMPHENICOL], the zone of inhibition at 30 µg/disc in test [1] amounted to 23 mm; in test [2], 22 mm; in test [4] it was 22 mm; in test [5], 22 mm; in test [6], 11 mm; in test [7] it was 38 mm. The zone of inhibition at 30 µg/disc in test [8] came out at 23 mm.
On to `O=C(C[n+]1ccccn1)c1ccc(O)c(O)c1`, for which the zone of inhibition at 30 µg/disc in test [1] amounted to 15 mm; in test [2] it was 30 mm; in test [4], 11 mm; in test [5] it was 20 mm; in test [6], 20 mm; in test [7], 30 mm. In test [8], the zone of inhibition at 30 µg/disc was found to be 17 mm. Also, the zone of inhibition at 100 µg/disc in test [3] is 0 mm.
With `O=C(C[n+]1cccc(-c2ccc(Br)cc2)n1)c1ccc(O)c(O)c1`, the zone of inhibition at 30 µg/disc worked out at 21 mm in test [1]; 15 mm in test [2]; 16 mm in test [4]; 9 mm in test [5]; 15 mm in test [6]; 30 mm in test [7]. For the same compound, the zone of inhibition at 30 µg/disc in test [8] was 17 mm. For the same compound, the zone of inhibition at 100 µg/disc in test [3] came to 12 mm.
Consider `Cc1ccc[n+](CC(=O)c2ccc(O)c(O)c2)n1`, for which the zone of inhibition at 30 µg/disc in test [1] was 29 mm; in test [2], 28 mm; in test [4], 28 mm; in test [5] it was 29 mm; in test [6] it was 18 mm; in test [7], 40 mm. In addition, the zone of inhibition at 30 µg/disc in test [8] amounted to 26 mm. In test [3], the zone of inhibition at 100 µg/disc came out at 15 mm.
With `Cc1cc[n+](CC(=O)c2ccc(O)c(O)c2)cn1`, the zone of inhibition at 30 µg/disc is 35 mm in test [1]; 41 mm in test [2]; 36 mm in test [4]; 35 mm in test [5]; 30 mm in test [6]; 40 mm in test [7]. In addition, the zone of inhibition at 30 µg/disc in test [8] came to 31 mm. Further, in test [3], the zone of inhibition at 100 µg/disc turned out to be 27 mm.
Turning to `O=C(C[n+]1ccc(O)nc1)c1ccc(O)c(O)c1`, the zone of inhibition at 30 µg/disc in test [1] amounted to 35 mm; in test [2], 44 mm; in test [4] it was 38 mm; in test [5] it was 32 mm; in test [6], 36 mm; in test [7], 42 mm. The zone of inhibition at 30 µg/disc in test [8] was determined as 33 mm. Besides, the zone of inhibition at 100 µg/disc in test [3] was found to be 28 mm.
NYSTATIN yielded an inhibition zone (IZ) in test [3] of 28 mm.
